Assay results as given in patent publication US20220054496A1, “MODULATION OF TRF1 FOR BRAIN CANCER TREATMENT” (Fundación Del Sector Público Estatal Centro Nacional De …, priority 2018, published 2022).
Entries after “also recorded” stand apart in the source; their conditions may differ.

What was measured:
TRF1 [1] = assay: TRF1 nuclear immunofluorescence (TRF1 foci) in U251 cells; type: cell-based, human; conditions: 10 μM, 24 h or 48 hr
Procedure: For immunofluorescence analyses, cells were plated in a proper density in cell culture μCLEAR plates (Greiner) and fixed in 4% formaldehyde in PBS. Cells were permeabilized with 0.25% Triton in PBS and blocked with 5% BSA in PBS. Tissue sections were fixed in 10% buffered formalin (Sigma) and embedded in paraffin. After deparaffinization and citrate antigen retrieval, sections were permeabilized with 0.5% Triton in PBS and blocked with 1% BSA and 10% Australian FBS ([…]) in PBS. The antibodies were applied overnight in antibody diluents with background reducing agents (Invitrogen).
Immunofluorescence images were obtained using a confocal ultraspectral microscope (Leica TCS-SP5) or the Opera High Content Screening (HCS) system (Perkin Elmer). Quantifications were performed with Definiens software.
(§1) For in vitro studies, ETP-47228 ETP-47037 and ETP-50946 were dissolved in DMSO at a final concentration of 10 or 5 mM. Cells were treated at a concentration of 10 μM for 24 h or 48 hr.
(§2) To address whether these small molecules could represent a new therapeutic strategy for the treatment of GBM, the present inventors first tested the ability of the three independent TRF1 inhibitory molecules (ETP-47228, ETP-47037 and ETP-50946) to downregulate TRF1 protein levels in the U251 human GBM cell line.

h676 GSCs [2] = assay: Sphere formation assay in patient-derived h676 GSCs; type: cell-based, human; conditions: for sphere formation, dose-response: 7 days
Procedure: (§3) FIG. 48. […] (A) Dose-response curves of the h676 GSCs treated 7 days with the indicated compounds. (B) Dose-response curves of the h543 GSCs treated 7 days with the indicated compounds. Data are represented as mean±SD.
(§4) Spheres were dissociated into single cells and seeded at a density of 50, 100, 200 and 400 cells/well in a 96 well plate. Neurosphere number was assessed after 7 days. Pictures were taken using Nikon Eclipse Ti-U microscope and neurosphere diameter was measured using NIS Elements BR software.
(§5) Given the promising results the present inventors obtained with the TRF1 chemical modulators in the U251 GBM cell line, the present inventors next set to address the effects of these compounds in two independent patient-derived primary GSCs (h543 and h676) cultures.
(§6) Next, the present inventors set to address whether the different compounds were able to block sphere formation in the h676 and h543 GSCs.

h543 GSCs = assay: Sphere formation assay in patient-derived h543 GSCs; type: cell-based, human; conditions: for sphere formation, dose-response: 7 days
Procedure: as §3, §4, §5, §6

TRF1 [3] = assay: Western blot of total TRF1 protein in U251 cells; type: cell-based, human; conditions: 10 μM, 24 h or 48 hr
Procedure: (§7) Nuclear protein extracts were obtained using Nuclear Cytosolic Fractionation Kit (Biovision) and protein concentration was determined using the Bio-Rad DC Protein Assay (Bio-Rad). Up to 15 μg of protein per extract were separated in SDS-polyacrylamide gels by electrophoresis. After protein transfer onto nitrocellulose membrane (Whatman), the membranes were incubated with the indicated antibodies. Antibody binding was detected after incubation with a secondary antibody coupled to horseradish peroxidase using chemiluminescence with ECL detection KIT (GE Healthcare)
Quantifications: Protein-band intensities were measured with ImageJ software and normalized against the loading control.
as §1, §2

U251 cells = assay: Neurosphere formation assay in U251 cells; type: cell-based, human; conditions: U251 in NSC media; seven days; vs DMSO
Procedure: as §4
Finally, the present inventors checked if the three chemical compounds had the ability to reduce sternness in these cells. They cultured U251 cells with NSC media in order to obtain a suspension culture enriched in stem cells. The inventors performed a sphere formation assay with these cells treated with ETP-47228, ETP-47037 and ETP-50946 or DMSO for seven days. […] Of note, all these effects recapitulated what the present inventors observed with Trf1 genetic downregulation (See 2.2).

p-AKT = p-AKT activation (p-AKT/AKT western blot) in h676 GSCs; type: cell-based, human; conditions: 1 μM, 24 h
Procedure: FIG. 47. […] Western Blot (up) and quantification (down) of p-AKT/AKT ratio in the h676 GSCs after 24 h treatment with 1 μM of the indicated compounds. Data are represented as mean±SD. n represents biological replicates.
The present inventors have confirmed the modulation of TRF1 through the PI3K-AKT pathway (Méndez-Pertuz et al., 2017). In order to check whether the novel compounds act independently of this pathway, the present inventors treated the cells for 24 h at 1 μM concentration and checked p-AKT activation. They also included in this analysis some compounds previously identified by the same research group: namely ETP-47037 (PI3Ki) (García-Beccaria et al., 2015), and ETP-50946 (FIG. 47, right graph of the lower part).

TRF1 [4] = assay: Western blot of TRF1 protein levels in h676 GSCs; type: cell-based, human; conditions: 1 μM, 24 h
Procedure: FIG. 46. Screening of ETP-antitumoral library: Identification of TRF1 modulators in compounds approved by FDA or in clinical trials. (A) Drugs in ETP-antitumoral library distribution in Reactome Pathways. (B) Opera High ContentScreening system was used to identify compounds with the ability to inhibit TRF1, from representative images of confocal validation obtained from cells treated with DMSO (upper photograph of the right side of the panel and b) 1 μM of the tested compound, and determining the signal corresponding to TRF1 foci; TRF1 foci (green signal) can be appreciated clearly in the upper on the nuclear staining with DAPI (blue signal), but they have decreased in the lower photograph. (C) Representation of the inhibition of TRF1 levels by drugs belonging to different signaling pathways that modulate TRF1 at telomeres. Bar fillings vary depending on the signaling pathway. The results corresponding to three PI3K inhibitors inside the ETP-antitumoral library are represented by the three first bars from the right, validating the screening. (D) Structurally diverse MEK inhibitors tested in the chemical biology validation of the MEK/ERK pathway as modulator of TRF1 levels. (E) Structurally diverse ERK inhibitors tested in the chemical biology validation of the MEK/ERK pathway as modulator of TRF1 levels. (F) Inhibition of TRF1 levels by the MEK and ERK inhibitors represented in (D) and (E), respectively, measured by immunofluorescence. (G) Structurally diverse HSP90 inhibitors tested in the chemical biology validation of HSP90 pathway as modulator of TRF1 levels. (H) Inhibition of TRF1 levels by the HSP90 inhibitors represented in (G), measured by immunofluorescence. (I) Structurally diverse tubulin agent tested in the chemical biology validation of tubulin agents as modulator of TRF1 levels. (J) Inhibition of TRF1 levels by the tubulin agents represented in (I), measured by immunofluorescence. (K) Western Blot (up) and quantification (down) of TRF1 protein levels in the h676 GSCs after 24 h treatment with 1 μM of the indicated compounds. Data are represented as mean±SD. n represents biological replicates. Statistical analysis: unpaired t-test.
as §7
The present inventors treated GSCs for 24 h at 1 μM concentration and assessed TRF1 protein levels by western blot.

TRF1 [5] = assay: Screening of ETP-antitumoral library / phenotypic assay of TRF1 levels in CHA-9.3 cells; type: cell-based, mouse; conditions: for inhibition of TRF1 protein levels / TRF1 modulation in the screening: CHA-9.3 mouse lung cancer cell line, 1 μM, 24 h; for modulation of TRF1 levels by tubulin agents (validation): immunofluorescence
Procedure: All of them were tested at 1 μM during 24 h in the phenotypic assay that measure TRF1 levels.

h676 GSCs [6] = assay: Drug combination studies (sphere number and diameter) in h676 GSCs; type: cell-based, human; conditions: number and diameter of spheres, 7 days
Excerpt: FIG. 51. […] (A-F) Quantification of number of spheres (up) and diameter (down) in h676 GSCs treated with the indicated compounds. Representative image of the spheres (left). Data are represented as mean±SD (up) or mean±SD (down), n represents biological replicates (up) or number of spheres (down). Statistical analysis: unpaired t-test.
Using this concentration as a reference point, the present inventors designed a combinatorial matrix using different concentrations of the compounds (e.g. 2×GI50, GI50 and ½ GI50) to study all the possible combinations. Combination index is calculated to establish if the combination is synergistic, additive or antagonistic (FIG. 50A).

Row | SMILES | dependence on p-AKT (p-AKT activation) (p-AKT) | degree of TRF1 inhibition (TRF1 protein levels by western blot) (TRF1 [4]) | inhibition of TRF1 protein levels / TRF1 modulation in the screening (TRF1 [5]) | synergic effect in combination with PI3Ki (ETP-47037) (h676 GSCs [6]) | other results
1 | NC(Cc1ccccc1)c1csc(Nc2ncccn2)n1 (racemic) [ETP-50946] | – | – | – | – | TRF1 foci (immunofluorescence) (TRF1 [1]): effectively reduced; diameter of spheres (h676 GSCs [2]; vs untreated controls): significant drastic reduction; number of spheres (h676 GSCs [2]; vs untreated controls): significant drastic reduction; diameter of spheres (h543 GSCs; vs untreated controls): significant drastic reduction; number of spheres (h543 GSCs; vs untreated controls): significant drastic reduction; total TRF1 protein levels (western blot) (TRF1 [3]): effectively reduced; diameter of neurospheres (U251 cells): strong reduction; number of neurospheres (U251 cells): strong reduction
2 | COc1cc(Nc2ncc3c(n2)-c2ccc(Cl)cc2C(c2c(F)cccc2OC)=NC3)ccc1C(=O)O [Alisertib] | act independently of p-AKT | no ability to downregulate TRF1 | inhibit TRF1 protein levels; also recorded: novel TRF1 modulators | – | –
3 | CC(=O)O[C@@]12CO[C@@H]1C[C@H](O)[C@@]1(C)C(=O)[C@H](O)C3=C(C)[C@@H](OC(=O)[C@H](O)[C@@H](NC(=O)OC(C)(C)C)c4ccccc4)C[C@@](O)([C@@H](OC(=O)c4ccccc4)[C@H]21)C3(C)C [Docetaxel] | act independently of p-AKT | medium TRF1 modulators | inhibit TRF1 protein levels; also recorded: novel TRF1 modulators | significant synergic effect | sphere formation, dose-response (h676 GSCs [2]): most potent compounds; sphere formation, dose-response (h543 GSCs): most potent compounds; modulation of TRF1 levels by tubulin agents (validation) (TRF1 [5]): more strongly
4 | CN1CC[C@H](c2c(O)cc(O)c3c(=O)cc(-c4ccccc4Cl)oc23)[C@H](O)C1 [Flavopiridol] | act independently of p-AKT | medium TRF1 modulators | inhibit TRF1 protein levels; also recorded: novel TRF1 modulators | – | –
5 | C[C@@H](Oc1cc(-n2cnc3ccc(CN4CCN(C)CC4)cc32)sc1C(N)=O)c1ccccc1C(F)(F)F [GSK461364] | p-AKT dependent | no ability to downregulate TRF1 | inhibit TRF1 protein levels; also recorded: novel TRF1 modulators | – | –
6 | Nc1ccn([C@@H]2O[C@H](CO)[C@@H](O)C2(F)F)c(=O)n1 [Gemcitabine] | act independently of p-AKT | medium TRF1 modulators | inhibit TRF1 protein levels; also recorded: novel TRF1 modulators | significant synergic effect | sphere formation, dose-response (h676 GSCs [2]): most potent compounds; sphere formation, dose-response (h543 GSCs): most potent compounds
7 | COc1ccc(-c2ccc3c(N4CCOCC4)nc(N4C[C@@H](C)O[C@@H](C)C4)nc3n2)cc1CO [KU-0063794] | p-AKT dependent | medium TRF1 modulators | inhibit TRF1 protein levels; also recorded: novel TRF1 modulators | – | –
8 | O=C(Nc1ccc2[nH]nc(-c3ccncc3)c2c1)[C@@H]1CCN(CC(=O)N2CCN(c3ccc(-c4ncccn4)cc3)CC2)C1 [SCH772984] | act independently of p-AKT | potent TRF1 modulators | novel TRF1 modulators | significant synergic effect | inhibition of TRF1 protein levels / TRF1 modulation in the screening (TRF1 [5]; listed as ERKi): inhibit TRF1 protein levels
9 | CC(=O)O[C@H]1C(=O)[C@@]2(C)[C@H]([C@H](OC(=O)c3ccccc3)[C@]3(O)C[C@H](OC(=O)[C@H](O)[C@@H](NC(=O)c4ccccc4)c4ccccc4)C(C)=C1C3(C)C)[C@]1(OC(C)=O)CO[C@@H]1C[C@@H]2O [paclitaxel] | – | – | – | – | modulation of TRF1 levels by tubulin agents (validation) (TRF1 [5]): more strongly
